The nature of data set [1]: Solubility in PBS at pH 8. The conditions noted are these: for Solubility in PBS at pH 8: PBS pH 8, 37° C., levorphanol free base by sonication; for solubility: PBS, 37 °C, pH 8, aqueous buffer, thermodynamic from solid. The procedure: (§1) PBS solutions at various pHs (1.2, 6 and 8) were prepared by adjusting 60-mL volumes of PBS maintained at 37° C. with a dropwise addition of concentrated phosphoric acid and/or 0.01 N NaOH, and monitoring with a pH meter calibrated between pH 4 and 7. […] A 50 μL sample was taken for the t=0 time point. The remaining solution was then divided into five aliquots (175 μL each) in microcentrifuge vials labeled according to sampling time-points. Air-tight sealed vials were then incubated at 37° C. in a temperature-controlled water bath. At each time-point, the appropriate vial was removed from the water bath, and a 50 μL sample drawn for HPLC analysis.

Data set [2] has as its target human mu receptor (Homo sapiens, UniProt P35372). Description: Human mu receptor binding (IC50, Ki).
Data set [3] is described as follows: Chemical hydrolysis / aqueous stability in PBS at pH 1.2, 6 and 8, 37° C., HPLC. The conditions noted are these: 1 mg/mL. The procedure:
as §1

Data set [4] concerns the target alkaline phosphatase (EC 3.1.3.1) (Bos taurus, UniProt P19111). Description: Enzymatic hydrolysis by alkaline phosphatase at pH 8, 37° C., HPLC. As for the experimental part:
Alkaline Phosphatase (400 units) was added to 10 mL of Alkaline Phosphatase Stabilizing Buffer (APSB; Sigma-Aldrich Catalog #A4955) maintained at 37° C. Solution pH was verified by dropping 25 μL of solution onto calibrated Color-pHast Indicator Strips (pH 2-9, Darmstadt, Germany) and checking the color against the calibration scale. […] At each sampling time point, a 200-μL aliquot was drawn into labeled micro centrifuge tubes, each containing 50 μL of Alkaline Phosphatase Stop Solution (APSS; Sigma-Aldrich Catalog #A5852). Acetonitrile (400 μL) was added to each micro centrifuge tube, vortexed briefly, and centrifuged at 12,000 rpm for 5 min. An aliquot (200 μL) of resulting supernatant was removed from each tube, being careful not to disturb the enzyme pellet at the bottom and transferred to HPLC vials containing low volume inserts.

Bounds are passed on as bounds.

Sequence of alkaline phosphatase (EC 3.1.3.1) (P19111 20-506 limits assumed): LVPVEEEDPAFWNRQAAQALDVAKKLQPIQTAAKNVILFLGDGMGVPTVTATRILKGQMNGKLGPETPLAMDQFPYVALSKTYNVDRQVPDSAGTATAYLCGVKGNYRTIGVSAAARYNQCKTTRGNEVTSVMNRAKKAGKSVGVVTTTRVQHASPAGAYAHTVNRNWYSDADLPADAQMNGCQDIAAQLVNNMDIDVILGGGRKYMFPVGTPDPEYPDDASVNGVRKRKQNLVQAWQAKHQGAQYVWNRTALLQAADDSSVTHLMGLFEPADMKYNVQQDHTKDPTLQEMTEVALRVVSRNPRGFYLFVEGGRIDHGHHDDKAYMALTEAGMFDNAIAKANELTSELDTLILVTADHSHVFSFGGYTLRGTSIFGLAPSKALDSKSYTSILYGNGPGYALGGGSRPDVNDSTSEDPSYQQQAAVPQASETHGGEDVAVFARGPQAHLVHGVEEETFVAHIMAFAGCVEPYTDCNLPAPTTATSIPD
Sequence of human mu receptor (P35372 whole entry): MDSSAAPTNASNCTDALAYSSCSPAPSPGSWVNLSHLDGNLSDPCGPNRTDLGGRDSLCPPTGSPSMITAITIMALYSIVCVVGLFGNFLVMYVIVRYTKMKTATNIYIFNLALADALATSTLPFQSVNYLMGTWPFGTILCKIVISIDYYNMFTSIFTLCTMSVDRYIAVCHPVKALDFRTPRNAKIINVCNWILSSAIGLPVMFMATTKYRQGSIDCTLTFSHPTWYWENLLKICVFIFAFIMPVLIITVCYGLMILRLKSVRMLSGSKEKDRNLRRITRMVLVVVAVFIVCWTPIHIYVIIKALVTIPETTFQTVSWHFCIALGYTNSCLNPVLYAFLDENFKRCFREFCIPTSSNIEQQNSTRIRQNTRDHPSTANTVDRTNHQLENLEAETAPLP

What is called solubility is how much of the substance goes into solution per volume. Read a low solubility as a poorly soluble substance. Consider `CN1CC[C@]23CCCC[C@H]2[C@H]1Cc1ccc(O)cc13` [levorphanol, Levorphanol, reference compound], for which, in data set [1], the “Solubility in PBS at pH 8” value is “less than 1 mg/mL” and the solubility is less than 1 mg/mL.
By IC50 is commonly meant the concentration that inhibits the measured activity by half. Low values mean higher potency, high ones lower potency. What is called Ki is the dissociation constant of the complex between target and ligand, obtained from inhibition or displacement. As for `C[N+]1(COP(=O)(O)O)CCC23CCCCC2C1Cc1ccc(O)cc13` (stereo not drawn) [N-phosphonooxymethyl levorphanol, N-Phosphonooxymethyl Levorphanol], the “Solubility in PBS at pH 8” value in data set [1] is “approximately 137 mg/mL”. This compound also came in with a solubility in data set [1] of roughly 137 mg/mL. Also, the IC50 in data set [2] turned out to be 14 nM. In addition, the Ki in data set [2] (human mu receptor, same assay as IC50, read-out: inhibition constant, Ki) came to 5.7 nM. The “Percentage of N-phosphonooxymethyl levorphanol remaining” value is recorded as 100.0 in data set [3] (pH 1.2 PBS, 0 hours); 111.5 in data set [3] (pH 1.2 PBS, 0.5 hours); 104.4 in data set [3] (pH 1.2 PBS, 1 hour); 110.9 in data set [3] (pH 1.2 PBS, 3 hours); 111.1 in data set [3] (pH 1.2 PBS, 5 hours); 110.9 in data set [3] (pH 1.2 PBS, 23 hours). For the same compound, the “Percentage of N-phosphonooxymethyl levorphanol remaining” value is given as 100.0 in data set [3] (pH 6 PBS, 0 hours); 101.4 in data set [3] (pH 6 PBS, 0.5 hours); 102.3 in data set [3] (pH 6 PBS, 1 hour); 104.3 in data set [3] (pH 6 PBS, 3 hours); 104.3 in data set [3] (pH 6 PBS, 5 hours); 108.0 in data set [3] (pH 6 PBS, 22 hours). The “Percentage of N-phosphonooxymethyl levorphanol remaining” value in data set [3] (pH 8 PBS, 0 hours) was found to be 100.0; in data set [3] (pH 8 PBS, 0.5 hours), 100.6; in data set [3] (pH 8 PBS, 1 hour), 100.3; in data set [3] (pH 8 PBS, 3.5 hours), 99.8; in data set [3] (pH 8 PBS, 6 hours), 100.5; in data set [3] (pH 8 PBS, 24 hours), 103.7. For the same compound, in data set [4] (alkaline phosphatase, after 30 minutes), the N-phosphonooxymethyl levorphanol remaining entry is listed as “no measurable amounts”. Further, in data set [4] (alkaline phosphatase, time zero), the “share of total peak area that is N-phosphonooxymethyl levorphanol” value turned out to be 1.4%. Moreover, the “time to hydrolyze to levorphanol in the presence of alkaline phosphatase” value in data set [4] (pH 8, 40 units AP per mg) was no more than 30 min.

For the origin of these results see patent publication US20080318905A1, “Prodrugs and methods of making and using the same” (priority 2006, published 2008).
